According to US12090158B2, “Medicine for diabetic peripheral neuropathy” (NIPPON CHEMIPHAR CO., LTD., priority 2018, dated 2024):

Key:
[1] = tested on: rats (SD, male); experiment: Rota-rod test, effect on motor coordination; type: in vivo, rat; conditions: 60 mg/kg oral once, three hours after administration; for walking duration (time to fall from the rod): 10 rpm, cut-off 120 seconds
Procedure: As an index for studying a central inhibitory effect and a muscle relaxation effect, an effect on motor coordination was studied using a Rota-rod test.
In each of the groups, the number of samples was 8. Before a test, a rotation speed was set to 10 rpm using a mark on a rotating disk of Rota-rod (47700, UGO BASILE S.R.L.). A rat was gently placed on the rotating rod, and it was confirmed that the rat was placed on the rod stably. Thereafter, time (seconds) for the rat to fall from the rod was recorded. A cut-off value was 120 seconds. Trials were performed before administration of a test substance and three hours after the administration. At each measurement time, trials were performed up to three times. In a case where the cut-off value was reached, 120 seconds was taken as a walking duration at the time. In a case where the cut-off value was not reached in all three trials, an average of the three values was taken as a walking duration at the time.

[2] = tested on: STZ-induced diabetic neuropathy model rat; experiment: STZ-induced diabetic neuropathy model rat, von Frey up-down stimulation method, 50% escape response threshold; type: in vivo; conditions: oral, compared with STZ control group
Procedure: As one embodiment, the study was performed by administering the compound of the present invention to an STZ-induced diabetic neuropathy model rat, then giving a stimulus thereto by an up-down stimulation method, and calculating a 50% escape response threshold.
A model was prepared by intravenously administering STZ as a diabetes-inducing substance to a rat. In a test, an animal that had developed diabetic neuropathy 35 days after STZ administration was used.
On the day before administration of STZ and the day before administration of a test substance, about 100 μL of blood was collected from the tail vein using a winged injection needle equipped with a heparin-treated capillary. The obtained blood was centrifuged with a centrifuge [centrifugation conditions: 4° C., 3,000 rpm (×2,150 g), 15 min], and then plasma was obtained. The blood glucose level of the obtained plasma was measured using a hexokinase G-6-PDH method using an automatic biochemical analyzer. Note that the amount of the obtained plasma was very small, and therefore the measurement was performed by diluting the plasma 5 times with physiological saline. […]
35 days after administration of STZ, before administration, a 50% escape response threshold was measured, and the animals were divided into groups each including two animals such that the groups had the same average of escape response thresholds and the same average of body weights (severity of 50% escape response threshold: 8, severity of weight: 2). […]
Pain was evaluated during a pre-breeding period, and 35 days after administration of STZ, before administration of a test substance and one, two, four, and six hours after administration of the test substance. […] From the result, a 50% escape response threshold was calculated by the following method for calculating a 50% escape response threshold (the 50% escape response threshold was rounded off to two decimal places). […]

SMILES | effect on motor coordination ([1]; Rota-rod) | walking duration (time to fall from the rod) [1] [s] | 50% escape response threshold ([2]; 3 mg/mL group, two hours and four hours after administration) | 50% escape response threshold ([2]; 10 mg/mL group, one hour to four hours after administration) | 50% escape response threshold ([2]; 30 mg/mL group, one hour to four hours after administration)
O=C1CC(=O)N(c2ccc(NC(=O)c3ccccc3I)cc2)c2ccc3ccccc3c2N1 [Example 48 (Compound), 5-[4-(2-iodobenzoylamino)phenyl]-1H-naphtho [1,2-b] [1,4]diazepine-2,4 (3H,5H)-dione] | no effect on motor coordination | 120 | significantly increased | significantly increased | significantly increased
CC(C)C[C@H](CN)CC(=O)O [pregabalin, reference compound] |  | 22 ± 5 |  |  | 
